Experimental data as given in paper PMC3753236, “Glucocorticosteroids in Nano-Sterically Stabilized Liposomes Are Efficacious for Elimination of the Acute Symptoms of Experimental Cerebral Malaria” (PLoS ONE, 2013).

Columns and labels:
[1] = test system: Plasmodium berghei ANKA (PbAus); test: Early treatment of ECM, PbAus-inoculated C57Bl/6 mice (with sequential artemisone); conditions: for Death: ECM (number of mice) / Death: Severe anemic malaria (number of mice) / Death: Toxicity (number of mice) / Death: ECM (%) / Death: Severe anemic malaria (%) / Average clinical score (±SEM): days 3, 5, 7, 9 p.i.; for Death: ECM (%) / Death: Severe anemic malaria (%): excludes acute toxicity deaths; for Average clinical score (±SEM): 11 days post-inoculation; for % survival / Group score: 20 mg/kg (Fig 6 legend)
Description: Plasmodium berghei ANKA (PbA; PbA MRA-311, CDC, Atlanta, GA, USA) was maintained in vivo by serial transfer of parasitized erythrocytes (PE) from infected to naïve mice. Experiments were also performed using a second strain of PbA, similarly maintained, and designated PbAus in the text (courtesy of Prof. G. Grau, University of Sydney, Australia).
Parasitemia was monitored by thin blood smears prepared from tail blood. These were stained with a 25% Giemsa solution, examined under a light microscope, and parasitemia determined as the percent of infected red blood cells per 10,000 erythrocytes. Disease severity was determined according to scoring of neurological symptoms and changes in weight and temperature, as previously described […] Parasitemias above 20% and the absence of neurological symptoms indicated severe anemic malaria.
For early ECM treatment, injections were given on days 3, 5, 7, and 9 p.i; for late treatment, treatment was given every other day, starting on day 5 p.i. for a total of at least two injections. Infected, non-treated control mice were injected with 5% dextrose or empty nSSL. Clinical signs and parasitemias were monitored and disease severity scored as described […] At each time-point, at least 3 mice from each group were chosen at random, deeply anesthetized, and brains were removed following intracardial perfusion (using saline, if organs were destined for real-time (rt)PCR analysis, or saline/formalin, if organs were destined for histopathological analysis). Organs destined for rtPCR analysis were snap-frozen in liquid nitrogen and stored at −80°C until use. Organs destined for immunohistology were immediately immersed in cryoprotectant solution (see below).

microglia = test: Microglial activation, IBA-1 immunohistology; assay type: in vivo, C57Bl/6 mice; conditions: IBA-1, normalized to non-infected mice
Description: (§1) Sections were thaw-mounted onto on poly-L-lysine-coated slides and stored at -80°C until use.
Slides were thawed by sequential incubation at −20°C and 5°C (10 minutes at each temperature) and incubated in blocking solution consisting of 20% of 5% BSA and 80% of 5% NGS, in a moist environment at room temperature (RT). After one hour the blocking solution was removed and sections incubated overnight at 5°C with primary antibody diluted 1∶200 in blocking solution. Microglia were stained using rabbit anti-mouse ionized calcium binding adaptor molecule 1 (IBA-1) (Wako Chemicals, Richmond, VA, USA); astrocytes were stained using rabbit anti-bovine glial fibrillary acidic protein (GFAP) (cross-reactive to mouse; LifeSpan Biosciences, Seattle, WA, USA). After washing in PBS, slides were incubated for one hour at RT with secondary antibody, Cy3-AffiniPure donkey anti-rabbit IgG H+L (diluted 1∶200 in PBS; Jackson Immunoresearch Laboratories, West Grove, PA, USA), followed by an additional wash. […] At least three sections per brain (6 fields each) were examined, and the total number of astrocytes and microglia counted. […] Images were visualized and analyzed with ImagePro analysis software: quantification of relative fluorescence was performed using the integrated optical density (IOD) parameter. […]

[2] = test system: PbAus-infected C57Bl/6 mice; test: Brain edema, Evans blue dye extravasation; assay type: in vivo; conditions: treatment days 3, 5, 7, 9 p.i.
Description: BBB disruption was assessed by quantifying Evans blue dye extravasation. 200 µl 2% (w/v) Evan's blue solution in PBS was injected i.v. to pre-warmed mice. After 2 h mice were anesthetized and perfused intracardially with ice-cold PBS. Brains were extracted, homogenized in 1 ml PBS, and centrifuged; the supernatant was read by spectrophotometry at 510 nm. Values were normalized to the values from the brains of non-infected mice similarly injected.

[3] = test system: non-chloroquine resistant P. falciparum; test: P. falciparum culture, 3H-hypoxanthine incorporation; assay type: cell-based, Plasmodium falciparum; conditions: at concentrations up to 33 µM
Description: The parasite was grown in a human red blood cell culture (RPMI 1640, 7.5% bicarbonate, 50 µM hypoxanthine, 50 µg/ml gentamycin, and 7.5% human plasma) at 1% hematocrit and 2% parasitemia. Cultures containing predominantly ring forms were used; synchronization of the culture was performed if trophozoites represented more than 1–2% of the various developmental stages. Briefly, the culture was centrifuged and the supernatant replaced by 5% (isotonic) sorbitol. After 5 minutes at 37°C the culture was centrifuged again and the supernatant replaced by culture medium to obtain a final 1% hematocrit.
Drug testing was performed in 96-well microtiter plates incubated at 37°C in a 5% O2, 5% CO2, and 90% N2 gas mixture for 72 hours. After 48 hours, 1 µCi ^3H-hypoxanthine was added to each well and the plates were read the next day using a scintillation counter.

astrocytes = test: Astrocyte activation, GFAP immunohistology; assay type: in vivo, C57Bl/6 mice; conditions: for Astrocytes, normalized IOD: GFAP, normalized to non-infected mice
Description: as §1
Slides were thawed by sequential incubation at −20°C and 5°C (10 minutes at each temperature) and incubated in blocking solution consisting of 20% of 5% BSA and 80% of 5% NGS, in a moist environment at room temperature (RT). After one hour the blocking solution was removed and sections incubated overnight at 5°C with primary antibody diluted 1∶200 in blocking solution. Microglia were stained using rabbit anti-mouse ionized calcium binding adaptor molecule 1 (IBA-1) (Wako Chemicals, Richmond, VA, USA); astrocytes were stained using rabbit anti-bovine glial fibrillary acidic protein (GFAP) (cross-reactive to mouse; LifeSpan Biosciences, Seattle, WA, USA). After washing in PBS, slides were incubated for one hour at RT with secondary antibody, Cy3-AffiniPure donkey anti-rabbit IgG H+L (diluted 1∶200 in PBS; Jackson Immunoresearch Laboratories, West Grove, PA, USA), followed by an additional wash. After addition of 4′,6-diamidino-2-phenylindole (DAPI) in mounting solution (Dapi-Fluoromount-G, Southern Biotech, Birmingham, AL, USA) the slides were mounted with coverslips and examined by fluorescent microscopy. At least three sections per brain (6 fields each) were examined, and the total number of astrocytes and microglia counted. High-resolution images of stained slides were photographed using a laser confocal scanning microscope. Images were visualized and analyzed with ImagePro analysis software: quantification of relative fluorescence was performed using the integrated optical density (IOD) parameter. IOD values of infected non-treated or treated mice were normalized to non-infected mouse values.

[4] = test system: PbAus-infected C57Bl/6 mice; test: Brain hemorrhages, H&E staining; assay type: in vivo; conditions: treatment days 3, 5, 7, 9 p.i.
Description: H&E staining was performed by incubation of slides in Sigma's Accustain hematoxylin solution followed by staining in eosin solution (2% eosin, 1% phloxine and 0.5% acetic acid in 95% ethanol), and mounting in Hydromount (National Diagnostics, Cherry Hill, NJ, USA).

[5] = other disease models; ref [5]; cited from earlier work
[6] = day 5 p.i., treatment days 3, 5, 7, 9 p.i.
[7] = day 9 p.i., treatment days 3, 5, 7, 9 p.i.

For `C[C@H]1C[C@H]2[C@@H]3CCC4=CC(=O)C=C[C@]4(C)[C@@]3(F)[C@@H](O)C[C@]2(C)[C@@]1(O)C(=O)COC(=O)CCC(=O)O` [BMS, β-methasone hemisuccinate], the “Death: ECM (number of mice)” value ([1]; 5 mg/kg i.v.) was 5, the “Death: Severe anemic malaria (number of mice)” value ([1]; 5 mg/kg i.v.) was 1 and the “Death: Toxicity (number of mice)” value ([1]; 5 mg/kg i.v.) was 3. For the same compound, the “Death: ECM (%)” value ([1]; 5 mg/kg i.v.) was “(83%)”, the “Death: Severe anemic malaria (%)” value ([1]; 5 mg/kg i.v.) was “(16%)” and the “Death: ECM (number of mice)” value ([1]; 10 mg/kg i.v.) was 9. The “Death: Severe anemic malaria (number of mice)” value ([1]; 10 mg/kg i.v.) was 1, the “Death: Toxicity (number of mice)” value ([1]; 10 mg/kg i.v.) was 3 and the “Death: ECM (%)” value ([1]; 10 mg/kg i.v.) was “(90%)”. For the same compound, the “Death: Severe anemic malaria (%)” value ([1]; 10 mg/kg i.v.) was “(10%)”, the “Average clinical score (±SEM)” value ([1]; 10 mg/kg) was 7.5±1.6 and the “Death: ECM (number of mice)” value ([1]; 20 mg/kg i.v.) was 9. The “Death: Severe anemic malaria (number of mice)” value ([1]; 20 mg/kg i.v.) was 3, the “Death: Toxicity (number of mice)” value ([1]; 20 mg/kg i.v.) was 5 and the “Death: ECM (%)” value ([1]; 20 mg/kg i.v.) was “(75%)”. For the same compound, the “Death: Severe anemic malaria (%)” value ([1]; 20 mg/kg i.v.) was “(25%)”, the “Survival rate on day 13 p.i., at the end of the cerebral phase” value ([1]; 20 mg/kg on days 3, 5, 7, 9 p.i., listed as free BMS) was 12% and the “Average clinical score (±SEM)” value ([1]; 20 mg/kg) was 12.3±2.4. For the same compound, the “% survival” value [1, 6] was 100%, the Group score [1, 6] was 1.3±1.1 and the “% survival” value [1, 7] was 47%. The Group score [1, 7] was 8.4 ±1.7, the “Incidence of ECM” value ([1]; treatment days 3, 5, 7, 9 p.i., as quoted with the gene expression study) was 75% and the “Microglia, normalized IOD” value (microglia; day 5 p.i.) was 12±1. The “Microglia, normalized IOD” value (microglia; day 9 p.i.) was 10±0.05, the “Edema, ng Evan's blue/brain” value ([2]; day 5 p.i.) was 263±95 ng Evan's blue/brain and the “Edema, ng Evan's blue/brain” value ([2]; day 9 p.i.) was 263±6 ng Evan's blue/brain. The “IC50 (effect against cultured P. falciparum)” value [3] was “no effect ^*”, the “IC50 (effect against cultured P. falciparum)” value ([3]; listed as Free BMS) was “not effective” and the “Astrocytes, normalized IOD” value (astrocytes; day 5 p.i.) was 1.7±0.9. The “Astrocytes, normalized IOD” value (astrocytes; day 9 p.i.) was 1.1±0.1, the “Astrocyte number of primary processes” value (astrocytes; day 9 p.i., n = 23, 18 cells) was 10±2 and the Number of hemorrhages ([4]; day 5 p.i.) was 9±1. The Number of hemorrhages ([4]; day 9 p.i.) was 9±2 and the “Potency of BMS relative to MPS” value [5] was “five”.
